Data: patent US7910367B2, “Cell culture model and applications thereof” (L'Oreal, priority 2006, dated 2011)
No end group written: not given here.

Assays:
[1] = system: nerve cell-keratinocyte-melanocyte (N/K/M) multicellular model (melanogenesis); assay: Melanin amount in nerve cell-keratinocyte-melanocyte (N/K/M) multicellular model under noradrenergic stress; type: cell-based, human; conditions: for amount of melanin, +noradrenalin: 10^−5 M noradrenalin alone (Control) or with CGRP8-37 10^−6 M or Calmiskin 0.03%; for melanin synthesis by melanocytes (in words): multicellular model
Method: The experimental data were analyzed by means of the PRISM® software (graph pad software). The intergroup comparisons were carried out by analysis of variance (ANOVA) using Dunnett's multiple comparison test. The comparisons between two samples were carried out by analysis using the T test. They represent the mean of 4 independent experiments. They are expressed in μg of melanin/ml.

[2] = system: CGRP release by nerve cells; assay: Measurement of CGRP release in culture supernatants of the N/K/M model (ELISA); type: cell-based, rat
Method: At the end of the experiment described in Example 3, the supernatants from the wells and from the inserts were collected separately and immediately frozen at −80° C. in order to analyze the CGRP content. The CGRP content was measured in the culture supernatants by means of an ELISA assay (Rat CGRP enzyme Immuno Assay Kit, Spi Bio A05482) according to the protocol recommended by the supplier. The results are expressed in μg of CGRP/ml of medium. The analysis of the results was carried out as described above.

[3] = system: nerve cells of the N/K/M multicellular model; assay: Growth of nerve endings through the porous insert (anti-β-tubulin epifluorescence); type: cell-based; conditions: 10^−5 M noradrenalin, 10 days
Method: Using a multicellular model as obtained in Example 1, the cells were cultured in the absence or presence of 10^−5 M noradrenalin, for 10 days.
The N/K/M culture medium was deposited into the culture wells and into the inserts.
The various media were renewed 50/50 every day.
The nerve cells were labelled with an anti-β-tubulin monoclonal antibody (Sigma T8660) and then visualized with goat anti-mouse immunoglobulin antibody-Alexa fluor 488 conjugate (Interchim A-11029).
After thorough washing in PBS, the preparations were observed by epifluorescence (Nikon Diaphot 300 microscope) and photographed.
The photographs were taken below the insert (on the keratinocyte-neuron site).

[4] = 10 days, mean of 4 independent experiments

| Molecule | change in amount of melanin synthesized in the cocultures ([1]; 10^−5 M noradrenalin versus control without noradrenalin, 10 days) | amount of melanin, +noradrenalin [1, 4] | melanin synthesis by melanocytes (in words) [1] | CGRP release in the insert (in words) ([2]; insert supernatant, 10^−5 M noradrenalin, with or without 0.03% Calmiskin) | CGRP content, insert ([2]; supernatant of inserts (nerve cells), 10 days, 10^−5 M noradrenalin alone or with 0.03% Calmiskin) | CGRP content, culture well ([2]; supernatant of wells (keratinocyte/melanocyte side), 10 days, 10^−5 M noradrenalin alone or with 0.03% Calmiskin) | density of the cell extensions (nerve endings crossing the insert) [3] | amount of melanin, without noradrenalin ([1]; 10 days, no noradrenalin, CGRP8-37 10^−6 M, Calmiskin 0.03%, mean of 4 independent experiments) | change in amount of melanin in the presence of noradrenalin ([1]; versus 10^−5 M noradrenalin alone, Calmiskin 0.03%, CGRP8-37 10^−6 M, 10 days) [%] |
| --- | --- | --- | --- | --- | --- | --- | --- | --- | --- |
| NC[C@H](O)c1ccc(O)c(O)c1 [noradrenalin] | +15% | 25.77 ± 0.72 μg of melanin/ml | increase in melanin synthesis | very substantial | 493.86 ± 11.57 μg of CGRP/ml of medium | 170.48 ± 19.47 μg of CGRP/ml of medium | increased |  |  |
| CGRP8-37: reference CGRP receptor antagonist (VTHRLAGLLSRSGGVVKNNFVPTNVGSKAF; ends and bridges not checked; UniProt P06881 90-119, looked up, fragment) |  | 21.35 ± 0.91 μg of melanin/ml | considerable decrease in melanin synthesis |  |  |  |  | 19.33 ± 0.48 μg of melanin/ml | −17.2 |
